Assay results: patent US20130323167A1, “DETECTING AND TREATING SOLID TUMORS THROUGH SELECTIVE DISRUPTION OF TUMOR VASCULATURE” (THE JOHNS HOPKINS UNIVERSITY, priority 2010, published 2013)

Columns and labels:
[1] = system: subcutaneous CT26 tumors; format: in vivo, BALB/c mice; conditions: injection of the agent instead of TNF-α
Method: All animal experiments were overseen and approved by the Animal Welfare Committee of Johns Hopkins University, and were in compliance with the University standards. For the subcutaneous tumor model, female, six to eight week-old BALB/c mice (Harlan Breeders) were used. Five million CT26 cells were injected subcutaneously into the right flank of each mouse and allowed to grow for ˜10 days before randomization, group assignment, and treatment. C. novyi-NT spores were administered by a bolus tail vein injection of 300 million spores suspended in 0.2 mL of phosphate buffered saline, pH 7.5 (PBS). Cytotoxic anticancer agents were administered 16 hours later via the same route. TNF-α was reconstituted freshly before administration in doubly-distilled H2O at 100 ng/mL and diluted into 0.1% (w/v) BSA in PBS at a final concentration of 10 ng/mL. Cytotoxic agents were injected within a few minutes thereafter. Tumor volume was calculated as […]. For the orthotopic brain tumor model, female C57BL6 mice, 5-6 weeks of age, were purchased from the NCI-Frederick. […] Animals were monitored for potential side effects following drug administration. […]

[2] = system: CT26 tumors; assay: Treatment of fully developed subcutaneous CT26 tumors (tumor volume, survival); format: in vivo, BALB/c mice; conditions: TNF-α 25 ng/kg combined with Doxil or ^131I-labeled IgG
Method: For the subcutaneous tumor model, female, six to eight week-old BALB/c mice (Harlan Breeders) were used. Five million CT26 cells were injected subcutaneously into the right flank of each mouse and allowed to grow for ˜10 days before randomization, group assignment, and treatment. C. novyi-NT spores were administered by a bolus tail vein injection of 300 million spores suspended in 0.2 mL of phosphate buffered saline, pH 7.5 (PBS). Cytotoxic anticancer agents were administered 16 hours later via the same route. TNF-α was reconstituted freshly before administration in doubly-distilled H2O at 100 ng/mL and diluted into 0.1% (w/v) BSA in PBS at a final concentration of 10 ng/mL. Cytotoxic agents were injected within a few minutes thereafter. Tumor volume was calculated as length×width×0.5.

[3] = multiple injections (3 infusions/week) of a dose comparable to the highest mouse dose; cited from earlier work

| Compound | induction of E^2PR by microtubule-interacting agent [1] | cures and survival at lower dose of TNF-α [2] | tolerability in humans [3] |
| --- | --- | --- | --- |
| COc1ccc(/C=C\c2cc(OC)c(OC)c(OC)c2)cc1OP(=O)(O)O [Combretastatin A4P, combretastatin A4 phosphate] | resulted in E^2PR, though not as impressively as TNF-α |  |  |
| TNF-α |  | none of the treated animals were cured, although prolonged survival was observed | tolerate |
| CCC1=C[C@@H]2CN(C1)Cc1c([nH]c3ccccc13)[C@@](C(=O)OC)(c1cc3c(cc1OC)N(C)[C@H]1[C@@](O)(C(=O)OC)[C@H](OC(C)=O)[C@]4(CC)C=CCN5CC[C@]31[C@@H]54)C2 [vinorelbine] | resulted in E^2PR, though not as impressively as TNF-α |  |  |
